According to patent US7348336B2 (Sanofi-Aventis Deutschland GmbH, priority 2000, dated 2008):
Where a name gives a salt, the structure may show the parent alone.

Target: T1, IκBα-kinase complex (Homo sapiens, UniProt O14920+O15111)
T1 construct: endogenous in cells; host or cells: HeLa S3 cell extract, S100 fraction; ammonium sulfate precipitation and Superose-6 size exclusion
Test: IkB-Kinase ELISA;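 also: substrate phosphopeptide captured on Protein-A plates, detected with Streptavidin-HRP and TMB absorbance at 450 nm, activity read from a synthetic phosphopeptide standard curve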
Type: biochemical
Conditions: IkB-kinase IC50

T1 sequence (O14920 whole entry): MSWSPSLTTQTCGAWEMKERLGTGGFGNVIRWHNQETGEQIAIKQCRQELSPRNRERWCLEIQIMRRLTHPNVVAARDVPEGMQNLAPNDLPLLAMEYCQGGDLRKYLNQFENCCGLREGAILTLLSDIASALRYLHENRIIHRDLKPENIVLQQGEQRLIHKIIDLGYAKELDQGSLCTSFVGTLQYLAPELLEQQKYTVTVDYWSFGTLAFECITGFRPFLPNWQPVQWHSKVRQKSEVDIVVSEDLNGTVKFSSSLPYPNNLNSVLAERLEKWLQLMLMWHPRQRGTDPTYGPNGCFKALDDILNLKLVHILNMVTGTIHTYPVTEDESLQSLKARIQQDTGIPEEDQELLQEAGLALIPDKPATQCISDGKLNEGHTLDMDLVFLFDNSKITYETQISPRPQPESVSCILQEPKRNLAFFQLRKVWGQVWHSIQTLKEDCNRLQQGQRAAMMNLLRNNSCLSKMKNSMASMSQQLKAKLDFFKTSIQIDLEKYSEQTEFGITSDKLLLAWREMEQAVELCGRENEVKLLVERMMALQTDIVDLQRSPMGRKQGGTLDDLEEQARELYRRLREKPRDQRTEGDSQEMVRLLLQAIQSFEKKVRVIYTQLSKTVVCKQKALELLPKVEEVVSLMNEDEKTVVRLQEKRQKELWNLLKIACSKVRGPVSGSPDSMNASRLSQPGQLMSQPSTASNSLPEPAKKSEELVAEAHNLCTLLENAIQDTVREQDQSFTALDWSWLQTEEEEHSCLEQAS
T1 sequence (O15111 whole entry): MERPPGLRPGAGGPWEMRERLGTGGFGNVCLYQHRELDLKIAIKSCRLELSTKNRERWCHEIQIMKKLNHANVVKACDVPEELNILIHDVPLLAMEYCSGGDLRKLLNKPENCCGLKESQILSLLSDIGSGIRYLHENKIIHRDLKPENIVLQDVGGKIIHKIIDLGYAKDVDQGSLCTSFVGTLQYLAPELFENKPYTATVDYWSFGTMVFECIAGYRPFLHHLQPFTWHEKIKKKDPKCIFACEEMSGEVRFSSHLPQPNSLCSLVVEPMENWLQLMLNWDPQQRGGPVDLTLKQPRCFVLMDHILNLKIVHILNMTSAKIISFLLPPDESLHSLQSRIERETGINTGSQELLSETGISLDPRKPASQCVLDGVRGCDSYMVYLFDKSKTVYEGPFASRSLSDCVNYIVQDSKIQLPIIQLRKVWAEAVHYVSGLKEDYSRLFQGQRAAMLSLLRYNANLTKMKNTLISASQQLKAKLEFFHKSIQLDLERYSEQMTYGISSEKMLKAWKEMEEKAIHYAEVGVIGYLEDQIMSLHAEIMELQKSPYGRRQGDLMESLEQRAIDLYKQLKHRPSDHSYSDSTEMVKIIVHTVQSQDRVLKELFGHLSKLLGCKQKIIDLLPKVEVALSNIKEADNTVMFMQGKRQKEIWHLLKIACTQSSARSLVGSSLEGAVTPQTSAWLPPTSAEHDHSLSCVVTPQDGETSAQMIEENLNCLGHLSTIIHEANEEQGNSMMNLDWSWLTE
T1 sequence (Q9Y6K9 whole entry partner): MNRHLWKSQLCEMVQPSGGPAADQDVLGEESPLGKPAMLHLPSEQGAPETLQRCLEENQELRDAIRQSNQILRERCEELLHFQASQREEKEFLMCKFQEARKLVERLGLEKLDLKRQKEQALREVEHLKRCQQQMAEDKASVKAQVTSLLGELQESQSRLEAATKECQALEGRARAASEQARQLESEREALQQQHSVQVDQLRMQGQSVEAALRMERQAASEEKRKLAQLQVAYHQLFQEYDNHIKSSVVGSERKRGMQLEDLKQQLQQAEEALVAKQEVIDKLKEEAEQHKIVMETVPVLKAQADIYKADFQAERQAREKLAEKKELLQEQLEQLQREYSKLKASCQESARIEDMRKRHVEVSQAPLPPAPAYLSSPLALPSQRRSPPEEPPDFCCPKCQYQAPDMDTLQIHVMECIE

In order of rising IC50:
1. Clc1cc2c([nH]c3cnccc32)c(Cl)c1OCC1CCCCC1 [Example 96]  1300 nM
2. CN(C)c1cc(Cl)cc2c1[nH]c1cnccc12 [Example 44, trifluoroacetate]  2000 nM

Same assay, conditions: activated IκBα kinase complex from HeLa S3 cell extracts; ELISA; read-out: IkB-kinase IC50

In order of rising IC50:
1. O=C(Nc1cc(Cl)cc2c1[nH]c1cnccc12)c1cccnc1 [Example 60, N-(6-Chloro-9H-β-carbolin-8-yl)-nicotinamide]  52 nM
2. O=C(Nc1cc(Cl)cc2c1[nH]c1cnccc12)c1ccc(Cl)nc1 [Example 83, 6-Chloro-N-(6-chloro-9H-β-carbolin-8-yl)-nicotinamide]  60 nM
3. O=C1CC[C@H](C(=O)Nc2cc(Cl)cc3c2[nH]c2cnccc23)N1 [Example 99]  90 nM
4. CCOc1c(Cl)cc2c([nH]c3cnccc32)c1Cl [Example 39]  100 nM
5. Clc1cc2c([nH]c3cnccc32)c(Cl)c1OCC1CC1 [Example 65]  100 nM
6. CC(C)Oc1c(Cl)cc2c([nH]c3cnccc32)c1Cl [Example 84]  100 nM
7. Clc1cc2c([nH]c3cnccc32)c(Cl)c1OCC1CC1 [Example 64]  110 nM
8. COc1c(Cl)cc2c([nH]c3cnccc32)c1Cl [Example 37, trifluoroacetate]  150 nM
9. O=C(Nc1cc(Cl)cc2c1[nH]c1cnccc12)c1ccc(F)c(F)c1 [Example 82, N-(6-Chloro-9H-β-carbolin-8-yl)-3,4-difluoro-benzamide]  150 nM
10. COc1c(Cl)cc2c([nH]c3cnccc32)c1NC(=O)c1cccnc1 [Example 68, N-(6-Chloro-7-methoxy-9H-β-carbolin-8-yl)-nicotinamide]  160 nM
11. O=C(Nc1cc(Cl)cc2c1[nH]c1cnccc12)c1ccno1 [Example 79]  180 nM
12. Clc1cc(Cl)c2[nH]c3cnccc3c2c1 [Example 9]  200 nM
13. CC(C)COc1c(Cl)cc2c([nH]c3cnccc32)c1Cl [Example 85]  200 nM
14. Clc1cc2c([nH]c3cnccc32)c(Cl)c1OCc1ccccc1 [Example 81]  250 nM
15. O=C(Nc1cc(Cl)cc2c1[nH]c1cnccc12)c1ccncc1 [Example 56]  270 nM
16. O=C(Nc1cc(Cl)cc2c1[nH]c1cnccc12)c1cnccn1 [Example 88]  280 nM
17. O=C(Nc1cc(Cl)cc2c1[nH]c1cnccc12)c1ccco1 [Example 75]  290 nM
18. Cc1cc(C(=O)Nc2cc(Cl)cc3c2[nH]c2cnccc23)no1 [Example 80]  310 nM
19. O=C1CC[C@@H](C(=O)Nc2cc(Cl)cc3c2[nH]c2cnccc23)N1 [Example 103]  310 nM
20. CC(C)(C)C(=O)Oc1c(Cl)cc2c([nH]c3cnccc32)c1Cl [Example 58]  330 nM
21. COCOc1c(Cl)cc2c([nH]c3cnccc32)c1Cl [Example 70]  360 nM
22. O=C(Nc1cc(Cl)cc2c1[nH]c1cnccc12)c1ccccc1F [Example 62]  380 nM
23. Brc1ccc2[nH]c3cnccc3c2c1 [Example 1]  400 nM
24. CC(=O)n1c2ccc(Br)cc2c2ccncc21 [Example 2]  400 nM
25. CS(=O)(=O)n1c2ccc(Br)cc2c2ccncc21 [Example 10]  400 nM
26. N#Cc1ccc(C(=O)Nc2cc(Cl)cc3c2[nH]c2cnccc23)cc1 [Example 73]  400 nM
27. Clc1cc2c([nH]c3cnccc32)c(Cl)c1OC1CCCC1 [Example 92]  400 nM
28. CC(C)(C)c1cc(C(=O)Nc2cc(Cl)cc3c2[nH]c2cnccc23)n(Cc2ccccc2)n1 [Example 107]  400 nM
29. COc1c(Cl)cc2c([nH]c3cnccc32)c1N [Example 67]  500 nM
30. O=C1CC[C@H](C(=O)Nc2cc(Cl)cc3c2[nH]c2cnccc23)O1 [Example 111]  540 nM
31. O=C(Nc1cc(Cl)cc2c1[nH]c1cnccc12)c1ccc2c(c1)OCO2 [Example 89]  570 nM
32. N#Cc1cccc(C(=O)Nc2cc(Cl)cc3c2[nH]c2cnccc23)c1 [Example 72]  580 nM
33. COCC(=O)Nc1cc(Cl)cc2c1[nH]c1cnccc12 [Example 51, trifluoroacetate]  600 nM
34. COc1cccc(C(=O)Nc2cc(Cl)cc3c2[nH]c2cnccc23)c1 [Example 52, 7-chloro-9-(3-methoxybenzoxylamino)-β-carboline trifluoroacetate]  600 nM
35. Cc1cc(C(=O)Nc2cc(Cl)cc3c2[nH]c2cnccc23)n(C)n1 [Example 106]  600 nM
36. COc1c([N+](=O)[O-])cc2c([nH]c3cnccc32)c1Cl [Example 94]  640 nM
37. O=C(Nc1cc(Cl)cc2c1[nH]c1cnccc12)c1ccc(Br)cc1 [Example 113]  640 nM
38. O=C(Nc1cc(Cl)cc2c1[nH]c1cnccc12)C1CCCC1 [Example 117]  670 nM
39. O=C(Cc1cccnc1)Nc1cc(Cl)cc2c1[nH]c1cnccc12 [Example 97]  690 nM
40. Cn1c2ccc(Br)cc2c2ccncc21 [Example 11]  700 nM
41. COc1cc2[nH]c3cnccc3c2cc1Cl [Example 66]  700 nM
42. O=C(Cc1cccs1)Nc1cc(Cl)cc2c1[nH]c1cnccc12 [Example 86]  700 nM
43. O=C(Nc1cc(Cl)cc2c1[nH]c1cnccc12)c1ccccn1 [Example 87]  750 nM
44. Nc1cc(Cl)cc2c1[nH]c1cnccc12 [Example 15]  800 nM
45. CC(C)CC(=O)Nc1cc(Cl)cc2c1[nH]c1cnccc12 [Example 55, trifluoroacetate]  800 nM
46. O=C(Nc1cc(Cl)cc2c1[nH]c1cnccc12)c1cccs1 [Example 76]  900 nM
47. CN(C)CC(=O)Nc1cc(Cl)cc2c1[nH]c1cnccc12 [Example 98]  900 nM
48. O=S(=O)(Nc1cc(Cl)cc2c1[nH]c1cnccc12)c1ccc(F)cc1 [Example 112]  930 nM
49. O=C(Nc1cc(Cl)cc2c1[nH]c1cnccc12)c1ccccc1F [Example 61]  940 nM
50. Fc1cc2[nH]c3cnccc3c2cc1Cl [Example 34]  1000 nM
51. CNc1cc(Cl)cc2c1[nH]c1cnccc12 [Example 43, trifluoroacetate]  1000 nM
52. COc1c(N)cc2c([nH]c3cnccc32)c1Cl [Example 95]  1000 nM
53. O=C(Nc1cc(Cl)cc2c1[nH]c1cnccc12)c1cccnc1O [Example 104]  1000 nM
54. COc1cc2[nH]c3cnccc3c2cc1[N+](=O)[O-] [Example 63]  1300 nM
55. CCN(CC)CCOc1c(Cl)cc2c([nH]c3cnccc32)c1Cl [Example 93]  1300 nM
56. COc1ccc2c([nH]c3cnccc32)c1Cl [Example 36, trifluoroacetate]  1400 nM
57. COc1ccc(C(=O)Nc2cc(Cl)cc3c2[nH]c2cnccc23)cc1 [Example 53, 7-chloro-9-(4-methoxybenzoxylamino)-β-carboline trifluoroacetate]  1400 nM
58. O=C(COCc1ccccc1)Nc1cc(Cl)cc2c1[nH]c1cnccc12 [Example 90]  1400 nM
59. O=C(COc1ccccc1)Nc1cc(Cl)cc2c1[nH]c1cnccc12 [Example 100]  1500 nM
60. CC(=O)Oc1c(Cl)cc2c([nH]c3cnccc32)c1Cl [Example 101]  1800 nM
61. O=C(Nc1cc(Cl)cc2c1[nH]c1cnccc12)c1ccc(Cl)cc1 [Example 116]  1800 nM
62. Fc1cc2[nH]c3cnccc3c2cc1Cl [Example 40, trifluoroacetate]  2000 nM
63. O=C(Cc1ccccn1)Nc1cc(Cl)cc2c1[nH]c1cnccc12 [Example 108]  2100 nM
64. O=C(Nc1cc(Cl)cc2c1[nH]c1cnccc12)c1cccc(=O)[nH]1 [Example 109]  2100 nM
65. COc1c(Cl)cc2c([nH]c3cnccc32)c1NC(=O)c1ccc(F)cc1 [Example 114]  2100 nM
66. Cn1nc(C(C)(C)C)cc1C(=O)Nc1cc(Cl)cc2c1[nH]c1cnccc12 [Example 78]  2300 nM
67. O=C1COc2c(Cl)cc3c([nH]c4cnccc43)c2N1 [Example 91]  2300 nM
68. OCCn1c2ccc(Cl)cc2c2ccncc21 [Example 19]  3000 nM
69. O=C(c1cccnc1)N1CCn2c3cnccc3c3cc(Cl)cc1c32 [Example 69]  3000 nM
70. COc1ccc(C(=O)Nc2cc(Cl)cc3c2[nH]c2cnccc23)cc1OC [Example 71]  3000 nM
71. O=C(Oc1c(Cl)cc2c([nH]c3cnccc32)c1Cl)N1CCOCC1 [Example 59]  3200 nM
72. Fc1ccc2c(c1)[nH]c1cnccc12 [Example 31]  3300 nM
73. O=C(Nc1cc(Cl)cc2c1[nH]c1cnccc12)c1ccc(C(F)(F)F)cc1 [Example 74]  3800 nM
74. O=[N+]([O-])c1cc(Cl)cc2c1[nH]c1cnccc12 [Example 14]  4000 nM
75. CC(=O)N(C)c1cc(Cl)cc2c1[nH]c1cnccc12 [Example 48, trifluoroacetate]  4000 nM
76. CC(C)(C)C(=O)Nc1cc(Cl)cc2c1[nH]c1cnccc12 [Example 57]  4300 nM
77. Cc1oc(C(F)(F)F)cc1C(=O)Nc1cc(Cl)cc2c1[nH]c1cnccc12 [Example 77]  4400 nM
78. CCOc1ccc2c(c1)[nH]c1c(C)nccc12 [Example 27]  4500 nM
79. COc1cc2[nH]c3c(C)nccc3c2cc1Br [Example 32]  4600 nM
80. O=C(Nc1c(O)c(Cl)cc2c1[nH]c1cnccc12)c1cccnc1 [Example 115]  4600 nM
81. O=C(N1CCOCC1)n1c2ccc(Br)cc2c2ccncc21 [Example 17]  5000 nM
82. CS(=O)(=O)Nc1cc(Cl)cc2c1[nH]c1cnccc12 [Example 45, trifluoroacetate]  8300 nM
83. Cc1nccc2c1[nH]c1ccc(Br)cc12 [Example 28]  11000 nM
84. Oc1c(Cl)cc2c([nH]c3cnccc32)c1Cl [Example 38]  11000 nM
85. Cc1nccc2c1[nH]c1cc(OCc3ccccc3)ccc12 [Example 26]  12000 nM
86. NC(=O)Cn1c2ccc(Cl)cc2c2ccncc21 [Example 22]  15000 nM
87. CCOC(=O)Cn1c2ccc(Cl)cc2c2ccncc21 [Example 18]  23000 nM
88. Cc1nccc2c1[nH]c1cc(OCC(=O)OC(C)(C)C)ccc12 [Example 25]  31000 nM
89. CC(=O)Oc1ccc2c(c1)[nH]c1c(C)nccc12 [Example 29]  40000 nM
